Reference: patent US6316485A, “1,5-diphenylpyrazole derivatives” (Fujisawa Pharmaceutical Co., Ltd., priority 1997, dated 2001)

Tests used:
Human COX-II = molecular target: T1, Human COX-II (Homo sapiens, UniProt P35354); test: Human recombinant COX-II activity in vitro (PGE2 formation, radioimmunoassay); assay type: biochemical; conditions: recombinant human COX-II expressed in CHO cells; arachidonic acid 10 μM; PGE2 by radioimmunoassay
T1 construct: made in house; host or cells: stably transfected Chinese hamster ovary (CHO) cells; 1700×g supernatant of sonicated cells used as crude enzyme
T1 sequence (P35354 18-604): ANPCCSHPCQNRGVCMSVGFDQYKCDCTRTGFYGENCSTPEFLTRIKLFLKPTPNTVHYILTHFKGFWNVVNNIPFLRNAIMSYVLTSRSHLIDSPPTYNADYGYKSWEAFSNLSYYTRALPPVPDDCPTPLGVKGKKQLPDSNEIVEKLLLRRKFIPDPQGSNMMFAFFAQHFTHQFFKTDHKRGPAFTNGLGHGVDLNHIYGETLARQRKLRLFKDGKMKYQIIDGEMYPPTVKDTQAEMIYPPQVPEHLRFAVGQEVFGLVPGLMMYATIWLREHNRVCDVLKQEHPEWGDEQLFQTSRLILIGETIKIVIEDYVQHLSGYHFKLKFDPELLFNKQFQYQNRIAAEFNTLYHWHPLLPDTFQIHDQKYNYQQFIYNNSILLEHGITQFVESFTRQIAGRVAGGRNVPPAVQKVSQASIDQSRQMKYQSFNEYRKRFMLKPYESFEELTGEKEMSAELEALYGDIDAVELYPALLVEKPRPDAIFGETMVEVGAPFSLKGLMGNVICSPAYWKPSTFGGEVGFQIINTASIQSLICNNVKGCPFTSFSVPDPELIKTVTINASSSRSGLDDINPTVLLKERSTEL
Description: (§1) a. Preparation of the recombinant cyclooxygenase (COX)
(§2) The human cyclooxygenase COX-I and COX-II were expressed in transfected Chinese hamster ovary (CHO) cells. Monolayer cultures of semi-confluent CHO cells stably expressing COX-I and COX-II were washed twice and scraped into phosphate buffered saline (PBS). The cells were centrifuged at 200×g for 5 minutes and the cell pellet was sonicated in reaction buffer containing 100 mM Tris-HCl (pH 7.4), 2 μM hematin and 5 mM tryptophan. Broken cells were centrifuged for 5 minutes at 1700×g at 4° C. and the supernatants were used as crude enzymes.
(§3) Cyclooxygenase activities in the absence or presence of inhibitors were measured by determining the level of prostaglandin E2 (PGE2) synthesis from arachidonic acid. Enzymes (1 μg for COX-I and/or 3 μg for COX-II) in a total volume of 200 μl of reaction buffer were incubated in the absence and presence of various concentrations of inhibitors for 5 minutes at 30° C. The reaction was then started by the addition of arachidonic acid to the final concentration of 10 μM. The reaction was terminated by 50 μl of HCl (1N) after incubation at 30° C. for 5 minutes. PGE2 was extracted with ethyl acetate, concentrated under a stream of nitrogen and analyzed by a radio immunoassay kit (Amersham) according to the manufacture's instructions.
(§4) b. Assay for human recombinant COX-I and COX-II activity
(§5) COX activity was assayed as PGE2 formation using radioimmunoassay to detect the prostaglandin release. The appropriate COX enzyme was incubated in 0.1 M Tris-HCl buffer (pH 7.3) containing hematin and tryptophan with the addition of arachidonic acid (10 μM) for 5 minutes at 37° C. Compounds were pre-incubated with the enzyme for 5 minutes prior to the addition of arachidonic acid. Any reaction between the arachidonic acid and the enzyme was stopped after 5 minutes at 37° C. by addition of 20 μl of 1N HCl. PGE2 formation was measured by radioimmunoassay (Amersham).

Human COX-I = molecular target: T2, Human COX-I (Homo sapiens, UniProt P23219); test: Human recombinant COX-I activity in vitro (PGE2 formation, radioimmunoassay); assay type: biochemical; conditions: recombinant human COX-I expressed in CHO cells; arachidonic acid 10 μM; PGE2 by radioimmunoassay
T2 construct: made in house; host or cells: stably transfected Chinese hamster ovary (CHO) cells; 1700×g supernatant of sonicated cells used as crude enzyme
T2 sequence (P23219 24-599): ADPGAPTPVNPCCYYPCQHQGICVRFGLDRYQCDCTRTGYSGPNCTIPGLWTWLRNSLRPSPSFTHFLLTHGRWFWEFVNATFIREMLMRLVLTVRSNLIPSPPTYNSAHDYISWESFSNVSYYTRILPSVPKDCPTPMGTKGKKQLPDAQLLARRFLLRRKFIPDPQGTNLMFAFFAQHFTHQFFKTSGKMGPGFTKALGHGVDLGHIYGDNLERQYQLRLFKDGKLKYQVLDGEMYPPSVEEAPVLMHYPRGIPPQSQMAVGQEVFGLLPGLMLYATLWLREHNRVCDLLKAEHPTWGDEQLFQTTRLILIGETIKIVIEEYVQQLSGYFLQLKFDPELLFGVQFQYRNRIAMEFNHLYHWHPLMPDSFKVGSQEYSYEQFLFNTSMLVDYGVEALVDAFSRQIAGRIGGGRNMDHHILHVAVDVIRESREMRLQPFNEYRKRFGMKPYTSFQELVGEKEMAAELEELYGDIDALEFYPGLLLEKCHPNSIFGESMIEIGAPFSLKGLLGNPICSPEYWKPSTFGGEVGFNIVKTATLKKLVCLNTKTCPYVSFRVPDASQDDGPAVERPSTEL
Description: as §1, §2, §3, §4, §5

[1] = test system: Adjuvant Arthritis in Rats; test: Effect on Adjuvant Arthritis in Rats (antiinflammatory activity); assay type: in vivo, female Sprague-Dawley rats; conditions: 1.0 mg/kg, orally once a day for 23 days; paw volume on day 23 vs vehicle-treated controls

Row | SMILES | IC50 (Human COX-II) [µM] | IC50 (Human COX-I) [µM] | Inhibition of secondary lesion (uninjected paw) [1] [%]
1 | Cc1cc(-n2nc(C#N)cc2-c2ccc(S(C)(=O)=O)cc2)ccc1F [Example 6, 1-(4-fluoro-3-methylphenyl)-5-[4-(methylsulfonyl)phenyl]pyrazole-3-carbonitrile] | < 1 | > 100 | 
2 | COc1ccc(-n2nc(Cl)cc2-c2ccc(S(C)(=O)=O)cc2)cc1Cl [10-(8), 3-Chloro-1-(3-chloro-4-methoxyphenyl)-5-[4-(methylsulfonyl)phenyl]pyrazole] | < 1 | > 100 | ≥ 60
3 | Cc1ccc(-n2nc(C(F)F)cc2-c2ccc(S(C)(=O)=O)cc2)cc1Br [3-(16), 1-(3-Bromo-4-methylphenyl)-3-(difluoromethyl)-5-[4-(methylsulfonyl)phenyl]pyrazole] | < 1 | > 100 | 
4 | Cc1cccc(-n2nc(C(F)(F)F)cc2-c2ccc(S(C)(=O)=O)cc2)c1 [Example 1, 1-(3-methylphenyl)-5-[4-(methylsulfonyl)phenyl]-3-(trifluoromethyl)pyrazole] |  |  | ≥ 60
